The record followed here is ChEMBL document CHEMBL4828760, “Chalcogenides-incorporating carbonic anhydrase inhibitors concomitantly reverted oxaliplatin-induced neuropathy and enhanced antiproliferative action” (Eur J Med Chem, 2021).

Activity calls are given as the source filed them.

Assay [1] concerns the target Carbonic anhydrase 9 (Homo sapiens, UniProt Q16790). The assay can be described thus: Inhibition of recombinant human CA9 pre-incubated for 15 mins measured by phenol red dye based stopped flow CO2 hydration assay.
The subject of assay [2] is MCF7. The assay can be described thus: Cytotoxicity against human MCF7 cells assessed as reduction in cell viability at 100 uM measured after 72 hrs under hypoxic condition in presence of cisplatin by MTT assay. It is filed as functional, cell-based. Background: Formazan colour is commonly taken as a measure of viable cells.
For assay [3], the system named is MCF7. In words: Cytotoxicity against human MCF7 cells assessed as reduction in cell viability at 100 uM measured after 72 hrs under hypoxic condition in presence of doxorubicin by MTT assay. It is filed as functional, cell-based.
The test system of assay [4] is Mus musculus. The assay can be described thus: Antiallodynic activity in po dosed CD-1 albino mouse model of oxaliplatin-induced neuropathic pain assessed as reduction in pain-related behavior administered 14 days post oxaliplatin induction and measured upto 75 mins by cold plate test. It is filed as functional, organism-based. To be noted: dose 10-100 mg/kg, time 14.0 day.

In assay [5] the test system is Mus musculus. In words: Anti-hypersensitive activity in CD-1 albino mouse model of oxaliplatin-induced neuropathic pain assessed as restoration of normal pain threshold at 100 mg/kg, po administered 14 days post oxaliplatin induction and measured upto 75 mins by cold plate test. In kind it is functional, organism-based. To be noted: time min <=75.
Assay [6] relates to Mus musculus. The assay can be described thus: Anti-hypersensitive activity in CD-1 albino mouse model of oxaliplatin-induced neuropathic pain assessed as restoration of normal pain threshold at 10 mg/kg, po administered 14 days post oxaliplatin induction and measured upto 75 mins by cold plate test. It is filed as functional, organism-based. To be noted: time min <=75.
Assay [7] concerns Mus musculus. In words: Anti-hypersensitive activity in CD-1 albino mouse model of oxaliplatin-induced neuropathic pain assessed as restoration of normal pain threshold at 30 to 100 mg/kg, po administered 14 days post oxaliplatin induction and measured upto 75 mins by cold plate test. In kind it is functional, organism-based. Conditions: dose 30-100 mg/kg, time min <=75.
In assay [8] the test system is MCF7. In words: Cytotoxicity against human MCF7 cells assessed as reduction in cell viability measured after 72 hrs under hypoxic condition by MTT assay. To be noted: MCF7, 72 h.

By Ki is commonly meant the dissociation constant of the complex between target and ligand, obtained from inhibition or displacement. Turning to `NS(=O)(=O)c1ccc([Se]CC(O)CSc2ccccc2)cc1` (stereo unspecified), in assay [1], the Ki came to 288 nM. Moreover, the outcome in assay [2] was inactive. The outcome in assay [3] was Active.

For `Cc1ccccc1[Se]CC(O)C[Se]c1ccc(S(N)(=O)=O)cc1` (stereo unspecified), the Ki in assay [1] stood at 29.4 nM.

Take `COc1ccc([Se]CC(O)CSc2ccc(S(N)(=O)=O)cc2)cc1` (stereo unspecified): the Ki in assay [1] was found to be 156 nM.

`NS(=O)(=O)c1ccc(SCC(O)CSc2ccccc2Br)cc1` (stereo unspecified): the Ki in assay [1] is 175 nM.

`C=CCOCC(O)C[Se]CC(O)CSc1ccc(S(N)(=O)=O)cc1` (stereo unspecified): the Ki in assay [1] was found to be 241 nM.

Turning to `NS(=O)(=O)c1ccc(SCC(O)C[Se]c2ccccc2)cc1` (stereo unspecified), in assay [1], the Ki is 29.2 nM. Moreover, the Activity result in assay [4] was “Dose-Dependent Effect”. Moreover, in assay [5], the result was Active.

In the case of `NS(=O)(=O)c1ccc(SCC(O)CSc2cccc(Br)c2)cc1` (stereo unspecified), the Ki in assay [1] was 135 nM.

As for `NS(=O)(=O)c1ccc([Se]CC(O)CSc2ccc(Br)cc2)cc1` (stereo unspecified), in assay [1], the Ki is 172 nM. Moreover, the Activity entry in assay [4] was “Dose-Dependent Effect”. Moreover, the result in assay [6] and in assay [7] was Active.

Regarding `Cc1ccc(S(=O)(=O)N[C@@H](C)CSCC(O)CSc2ccc(S(N)(=O)=O)cc2)cc1` (stereo partly specified), in assay [1], the Ki is 193 nM.

As for `CCCC[Se]CC(O)C[Se]c1ccc(S(N)(=O)=O)cc1` (stereo unspecified), in assay [1], the Ki worked out at 208 nM.

For `NS(=O)(=O)c1ccc([Se]CC(O)CSc2ncccn2)cc1` (stereo unspecified), in assay [1], the Ki is 31 nM.

For orientation: IC50 means the midpoint of a concentration-inhibition curve. In the case of `COc1cc([Te]CC(O)CSc2ccc(S(N)(=O)=O)cc2)cc(OC)c1OC` (stereo unspecified), the Ki in assay [1] was 187 nM. The outcome in assay [2] and in assay [3] was Active. For the same molecule, the IC50 in assay [8] is 125000 nM.

As to `CC(O)CSCC(O)C[Se]c1ccc(S(N)(=O)=O)cc1` (stereo unspecified), the Ki in assay [1] stood at 275 nM.

Turning to `C=CCOCC(O)C[Se]CC(O)C[Se]c1ccc(S(N)(=O)=O)cc1` (stereo unspecified), the Ki in assay [1] is 157 nM.

Regarding `CCCC[Se]CC(O)CSc1ccc(S(N)(=O)=O)cc1` (stereo unspecified), the Ki in assay [1] turned out to be 164 nM. The result in assay [2] and in assay [3] was Active.

On to `NS(=O)(=O)c1ccc([Se]CC(O)C[Se]c2ccccc2)cc1` (stereo unspecified), for which the Ki in assay [1] was determined as 84.5 nM. The Activity result in assay [4] is “Dose-Dependent Effect”. The outcome in assay [7] was Active.

For `Cc1ccc([Te]CC(O)C[Se]c2ccc(S(N)(=O)=O)cc2)cc1` (stereo unspecified), in assay [1], the Ki amounted to 152 nM.
